Experimental findings from patent publication US20110212890A1, “METASTIN DERIVATIVE AND USE THEREOF” (Takeda Pharmaceutical Company Limited, priority 2008, published 2011) are described below.

Experiment [1] concerns male Crl: CD (SD) rats. Briefly: LH release action in male rat (plasma LH by radioimmunoassay). Type of experiment: in vivo. As to the method: (§1) For male Crl: CD (SD) rats (8 or 10 weeks old), compounds 1 (10 weeks old), 3, 8, 9, 10 and 11 (8 weeks old) (1, 10 or 100 nmol/kg), and metastin (45-54) (PEPTIDE INSTITUTE, INC., 10 or 100 nmol/kg), which were dissolved in physiological saline, were administered subcutaneously to the dorsum. For the control group, a physiological saline was administered subcutaneously to the dorsum. About 0.4 mL of the blood was collected from the tail vein before the administration (0 hour) and after 0.5, 1, 2, 4 hours of the administration of compounds 1, 3, 8, 9, 10 and 11, and metastin (45-54), or physiological saline. The collected blood was well mixed with 12 μL of 10 w/v % EDTA.2Na-containing trasylol solution (Bayer AG), and then separated by centrifugation at 12,000 rpm for 10 minutes, and the supernatant was recovered as the plasma sample. The concentrations of luteinizing hormone (LH) and total testosterone in the plasma were measured with radioimmunoassay (rat LH RIA Immuno-reagent set, National Hormone and Peptide Program, available from Dr. A. F. Parlow, The National Institute of Diabetes and Digestive and Kidney Diseases, and DPC Total Testosterone Kit, Mitsubishi Chemical Formula Iatron, Inc.).

Experiment [2] deals with male Crl: CD (SD) rats. The experiment can be described thus: Testosterone release action in male rat (plasma total testosterone by radioimmunoassay). In kind it is in vivo. As to the method:
as §1

The mark [3] stands for this setting: subcutaneous to the dorsum, 1, 10 or 100 nmol/kg, AUC from 0 hour to 4 hours after the administration, vs control group.

Ahx = NCCCCCC(=O)O

On to “PEG5K(CS)-CO-Acp-Tyr-Asn-Trp-Asn-Ser-Phe-Gly-Leu-Arg-Phe-NH2 ({PEG5K(CS)‑CO-Ahx}-YNWNSFGLRF-NH2) [compound 1]”, for which the “degree of increase in LH concentration in the plasma in comparison to metastin (45-54)” value in experiment [1] (subcutaneous) is “greater degree of increase”. Besides, in experiment [2] (subcutaneous), the “degree of increase in total testosterone concentration in the plasma in comparison to metastin (45-54)” value was “greater degree of increase”.
As for “metastin (45-54): peptide consisting of the N-terminal 45th-54th amino acid sequence of human metastin (SEQ ID NO: 16); PEPTIDE INSTITUTE, INC. (YNWNSFGLRF)”, the “dose showing (significant) increase in the LH concentration in the plasma (AUC)” value in experiment [1] (setting [3]) is 100 nmol/kg. For the same substance, in experiment [2] (setting [3]), the “dose showing (significant) increase in the total testosterone concentration in the plasma (AUC)” value was determined as 100 nmol/kg.
